Source: patent publication US11504383B2, “Crystalline forms of a Ryanodine receptor modulator and uses thereof” (ARMGO Pharma, Inc., priority 2021, dated 2022)
Entries after “also recorded” stand apart in the source; their conditions may differ.

Assays:
Format in all cases: physicochemical
[1] = Competitive slurry experiments mixing Form 1 and Form 2 in various solvents
Description: Competitive slurry experiments were performed at 15° C. (Table 5) or 40° C. (Table 6) by mixing Form 1 and Form 2 in various solvents in acetonitrile/water, acetone/water and methanol/water mixtures. […] (Table 5) or 40° C. (Table 6).

[2] = Thermogravimetric analysis (loss of mass before melting/degradation); details: 25° C. to 250° C. at about 10° C./minute
Description: Thermogravimetric analysis (TGA) was performed. A 10 to 20 mg of sample of a crystalline form of 4-[(7-methoxy-2,3-dihydro-1,4-benzothiazepin-4(5H)yl)methyl]benzoic acid hemifumarate was placed into an aluminum pan, with nitrogen purge. The sample was equilibrated at 25° C. in a temperature-controlled chamber. The sample was heated at a scan rate of about 10° C./minute to 250° C. under nitrogen purge. A TGA Q5000 thermogravimetric analysis instrument was used.

[3] = Dynamic vapor sorption (hygroscopicity); details: DVS, 25° C., 0-90% relative humidity
Description: Dynamic vapor sorption (DVS) analysis was performed by measuring mass variation of the crystalline form of 4-[(7-methoxy-2,3-dihydro-1,4-benzothiazepin-4(5H)yl)methyl]benzoic acid hemifumarate as a function of relative humidity using a DVS intrinsic instrument. A 5 mg to 10 mg of a sample of a crystalline form of 4-[(7-methoxy-2,3-dihydro-1,4-benzothiazepin-4(5H)yl)methyl]benzoic acid, hemifumarate was placed into a sample pan of a DVS intrinsic instrument at 25° C. under controlled humidity. The mass variation was recorded as a function of relative humidity.
Measurement of DVS comprised: (a) equilibrating a sample of the crystalline form at 25° C. and 50% relative humidity in a temperature-controlled and humidity controlled chamber until mass variation is less than 0.002% per minute for 6 hours; (b) increasing the relative humidity from 50% to 90% at a rate of 10% per hour; (c) equilibrating the sample at 90% relative humidity until mass variation of less than 0.002% per minute for 6 hours is observed; (d) decreasing the relative humidity from 90% to 0% at a rate of 10% per hour; (e) equilibrating the sample at 0% relative humidity until mass variation of less than 0.002% per minute for 6 hours is observed; and (f) increasing the relative humidity from 0% to 50% at a rate of 10% per hour.

[4] = Storage stability of the polymorphs followed by XRD
Description: The top panel depicts the polymorph at initiation and the bottom three panels depict the polymorph after 24 months. FIG. 5 Panel A: initial control; FIG. 5 Panel B: sample stored for 2 years in open bottle in stability chambers at 25° C./60% relative humidity (RH); FIG. 5 Panel C: sample stored for 2 years in closed bottle in stability chambers at 40° C./75% RH; FIG. 5 Panel D: sample stored for 2 years in open bottle in stability chambers at 40° C./75% RH.
The top panel depicts the polymorph at initiation and the bottom panels depict the polymorph after 3, 6, 12 and 24 months.

With COc1ccc2c(c1)CN(Cc1ccc(C(=O)O)cc1)CCS2.O=C(O)/C=C/C(=O)O [Form 1 and Form 2] the “XRD (form after competitive slurry)” value ([1]; 15° C. for 10 days, Acetone) was “Form 2”, the “XRD (form after competitive slurry)” value ([1]; 15° C. for 10 days, Acetone/water 30/70) was “Form 2” and the “XRD (form after competitive slurry)” value ([1]; 15° C. for 10 days, Acetone/water 90/10) was “Form 2”. For the same compound, the “XRD (form after competitive slurry)” value ([1]; 15° C. for 10 days, Acetone/water 96/4) was “Form 2”, the “XRD (form after competitive slurry)” value ([1]; 15° C. for 10 days, Acetone/water 98/2) was “Form 2” and the “XRD (form after competitive slurry)” value ([1]; 15° C. for 10 days, Acetonitrile) was “Acetonitrile solvate (Form 4)”. For the same compound, the “XRD (form after competitive slurry)” value ([1]; 15° C. for 10 days, Acetonitrile/water 15/85) was “Acetonitrile solvate (Form 4)”, the “XRD (form after competitive slurry)” value ([1]; 15° C. for 10 days, Acetonitrile/water 87/13) was “Acetonitrile solvate (Form 4)” and the “XRD (form after competitive slurry)” value ([1]; 15° C. for 10 days, Acetonitrile/water 94/6) was “Acetonitrile solvate (Form 4)”. The “XRD (form after competitive slurry)” value ([1]; 15° C. for 10 days, Acetonitrile/water 98/2) was “Acetonitrile solvate (Form 4)”, the “XRD (form after competitive slurry)” value ([1]; 15° C. for 10 days, Methanol) was “Methanol solvate (Form 3)” and the “XRD (form after competitive slurry)” value ([1]; 15° C. for 10 days, Methanol/water 20/80) was “Form 2 + Methanol solvate”. The “XRD (form after competitive slurry)” value ([1]; 15° C. for 10 days, Methanol/water 50/50) was “Methanol solvate (Form 3)”, the “XRD (form after competitive slurry)” value ([1]; 15° C. for 10 days, Methanol/water 70/30) was “Methanol solvate (Form 3)” and the “XRD (form after competitive slurry)” value ([1]; 15° C. for 10 days, Methanol/water 95/5) was “Methanol solvate (Form 3)”. For the same compound, the “XRD (form after competitive slurry)” value ([1]; 15° C. for 10 days, Water) was “Form 2”, the “XRD (form after competitive slurry)” value ([1]; 40° C. for 5 days, Acetone) was “Form 2” and the “XRD (form after competitive slurry)” value ([1]; 40° C. for 5 days, Acetone/water 30/70) was “Form 2”. For the same compound, the “XRD (form after competitive slurry)” value ([1]; 40° C. for 5 days, Acetone/water 90/10) was “Form 2”, the “XRD (form after competitive slurry)” value ([1]; 40° C. for 5 days, Acetone/water 96/4) was “Form 2” and the “XRD (form after competitive slurry)” value ([1]; 40° C. for 5 days, Acetone/water 98/2) was “Form 2”. For the same compound, the “XRD (form after competitive slurry)” value ([1]; 40° C. for 5 days, Acetonitrile) was “Acetonitrile solvate (Form 4)”, the “XRD (form after competitive slurry)” value ([1]; 40° C. for 5 days, Acetonitrile/water 15/85) was “Acetonitrile solvate (Form 4)” and the “XRD (form after competitive slurry)” value ([1]; 40° C. for 5 days, Acetonitrile/water 87/13) was “Acetonitrile solvate (Form 4)”. The “XRD (form after competitive slurry)” value ([1]; 40° C. for 5 days, Acetonitrile/water 94/6) was “Acetonitrile solvate (Form 4)”, the “XRD (form after competitive slurry)” value ([1]; 40° C. for 5 days, Acetonitrile/water 98/2) was “Acetonitrile solvate (Form 4)” and the “XRD (form after competitive slurry)” value ([1]; 40° C. for 5 days, Methanol) was “Methanol solvate (Form 3)”. The “XRD (form after competitive slurry)” value ([1]; 40° C. for 5 days, Methanol/water 20/80) was “Form 2 + Methanol solvate”, the “XRD (form after competitive slurry)” value ([1]; 40° C. for 5 days, Methanol/water 50/50) was “Methanol solvate (Form 3)” and the “XRD (form after competitive slurry)” value ([1]; 40° C. for 5 days, Methanol/water 70/30) was “Methanol solvate (Form 3)”. The “XRD (form after competitive slurry)” value ([1]; 40° C. for 5 days, Methanol/water 95/5) was “Methanol solvate (Form 3)”, the “XRD (form after competitive slurry)” value ([1]; 40° C. for 5 days, Water) was “Form 2” and the “Form obtained from slurry” value ([1]; acetone/water mixtures, all tested conditions) was “converted into Form 2”. The “Form obtained from slurry” value ([1]; acetonitrile/water mixtures, all tested ratios, 15° C. or 40° C.) was “converted into the acetonitrile solvate (Form 4)”, the “Form obtained from slurry” value ([1]; methanol/water (20/80 v/v)) was “a mixture of Form 2 and methanol solvate” and the “Form obtained from slurry” value ([1]; methanol/water mixtures, all tested ratios except 20/80 v/v, 15° C. or 40° C.) was “converted into the methanol solvate (Form 3)”.

With COc1ccc2c(c1)CN(Cc1ccc(C(=O)O)cc1)CCS2.O=C(O)/C=C/C(=O)O [Form 1, 4-[(7-methoxy-2,3-dihydro-1,4-benzothiazepin-4(5H)yl)methyl]benzoic acid, hemifumarate] the “Loss of mass before melting degradation (TGA)” value [2] was “about 1%”, the Hygroscopicity [3] was “slightly hygroscopic; also recorded: non-hygroscopic” and the “Storage time without any detectable conversion into Form 2” value ([4]; XRD, FIG. 5) was “at least 24 months”. For the same compound, the “Stability of the polymorph on storage (XRD, FIG. 5)” value ([4]; after 24 months, open bottle 25° C./60% RH, closed bottle 40° C./75% RH, open bottle 40° C./75% RH) was “stable”.
